Source: ChEMBL document CHEMBL1155774, “Pharmacokinetics, safety, and hydrolysis of oral pyrroloquinazolinediamines administered in single and multiple doses in rats” (Antimicrob Agents Chemother, 2007)

Experiments:
Rattus norvegicus [1] = assay: Bioavailability in intragastrically dosed Sprague-Dawley rat assessed as pyrroloquinazolinediamine level at 47.6 umol/kg administered daily for 3 days measured on day 1; type: ADME, organism-based; details: in vivo, po, 72 h
Rattus norvegicus [2] = assay: Cmax in intragastrically dosed Sprague-Dawley rat assessed as pyrroloquinazolinediamine level at 47.6 umol/kg administered daily for 3 days measured on day 1; type: ADME, organism-based; parameters: dose 47.6 umol/kg, route intragastric; details: in vivo, po, 72 h
Rattus norvegicus [3] = assay: Metabolic stability in intragastrically dosed Sprague-Dawley rat assessed as formation of pyrroloquinazolinediamine; type: ADME, organism-based; details: in vivo, po
Rattus norvegicus [4] = assay: Tmax in intragastrically dosed Sprague-Dawley rat assessed as pyrroloquinazolinediamine level at 47.6 umol/kg administered daily for 3 days measured on day 1; type: ADME, organism-based; details: in vivo, po, 72 h
Rattus norvegicus [5] = assay: Elimination half life in intragastrically dosed Sprague-Dawley rat assessed as pyrroloquinazolinediamine level at 47.6 umol/kg administered daily for 3 days measured on day 1; type: ADME, organism-based; details: in vivo, po, 72 h
Rattus norvegicus [6] = assay: Elimination half life in intragastrically dosed Sprague-Dawley rat assessed as pyrroloquinazolinediamine level at 95 umol/kg administered as single dose; type: ADME, organism-based; details: in vivo, po
Rattus norvegicus [7] = assay: Bioavailability in intragastrically dosed Sprague-Dawley rat assessed as pyrroloquinazolinediamine level at 95 umol/kg administered as single dose; type: ADME, organism-based; details: in vivo, po
Rattus norvegicus [8] = assay: AUC (0 to infinity) in intragastrically dosed Sprague-Dawley rat assessed as pyrroloquinazolinediamine level at 47.6 umol/kg administered daily for 3 days measured on day 3; type: ADME, organism-based, Plasma; parameters: dose 47.6 umol/kg, time infinity, route intragastric; details: in vivo, po, 72 h
Rattus norvegicus [9] = assay: Anorexic toxicity in intragastrically dosed Sprague-Dawley rat assessed as ratio of body weight change to day of weight change at 95 umol/kg administered daily for 3 days measured after 14 days; type: organism-based; details: in vivo, po, 336 h
Rattus norvegicus [10] = assay: Tmax in intragastrically dosed Sprague-Dawley rat assessed as pyrroloquinazolinediamine level at 47.6 umol/kg administered daily for 3 days measured on day 3; type: ADME, organism-based; details: in vivo, po, 72 h
Rattus norvegicus [11] = assay: Anorexic toxicity in intragastrically dosed Sprague-Dawley rat assessed as ratio of body weight change to day of weight change at 23.8 umol/kg administered daily for 3 days measured after 14 days; type: organism-based; details: in vivo, po, 336 h
Rattus norvegicus [12] = assay: Cmax in intragastrically dosed Sprague-Dawley rat assessed as pyrroloquinazolinediamine level at 95 umol/kg administered as single dose; type: ADME, organism-based; parameters: dose 95 umol/kg, route intragastric; details: in vivo, po
Rattus norvegicus [13] = assay: Cmax in intragastrically dosed Sprague-Dawley rat assessed as pyrroloquinazolinediamine level at 47.6 umol/kg administered daily for 3 days measured on day 3; type: ADME, organism-based; parameters: dose 47.6 umol/kg, route intragastric; details: in vivo, po, 72 h
Rattus norvegicus [14] = assay: Elimination half life in intragastrically dosed Sprague-Dawley rat assessed as bisacetamide pyrroloquinazolinediamine level at 95 umol/kg administered as single dose; type: ADME, organism-based; details: in vivo, po
Rattus norvegicus [15] = assay: AUC (0 to infinity) in intragastrically dosed Sprague-Dawley rat assessed as pyrroloquinazolinediamine level at 47.6 umol/kg administered daily for 3 days measured on day 1; type: ADME, organism-based, Plasma; parameters: dose 47.6 umol/kg, time infinity, route intragastric; details: in vivo, po, 72 h
Rattus norvegicus [16] = assay: Anorexic toxicity in intragastrically dosed Sprague-Dawley rat assessed as ratio of body weight change to day of weight change at 47.6 umol/kg administered daily for 3 days measured after 14 days; type: organism-based; details: in vivo, po, 336 h
Rattus norvegicus [17] = assay: AUC in intragastrically dosed Sprague-Dawley rat assessed as bisacetamide pyrroloquinazolinediamine level at 95 umol/kg administered as single dose; type: ADME, organism-based, Plasma; details: in vivo, po
Rattus norvegicus [18] = assay: Anorexic toxicity in intragastrically dosed Sprague-Dawley rat assessed as ratio of body weight change to day of weight change at 195 umol/kg administered as single dose after 14 days; type: organism-based; details: in vivo, po, 336 h
Rattus norvegicus [19] = assay: Toxicity in intragastrically dosed Sprague-Dawley rat at 2340 umol/kg; type: organism-based; details: in vivo, po
Rattus norvegicus [20] = assay: AUC in intragastrically dosed Sprague-Dawley rat assessed as monoacetamide pyrroloquinazolinediamine level at 95 umol/kg administered as single dose; type: ADME, organism-based, Plasma; details: in vivo, po
[21] = Toxicity in intragastrically dosed Sprague-Dawley rat assessed as maximum tolerated dose; type: organism-based; details: in vivo, po
Rattus norvegicus [22] = assay: Anorexic toxicity in intragastrically dosed Sprague-Dawley rat assessed as ratio of body weight change to day of weight change at 1560 umol/kg administered as single dose after 14 days; type: organism-based; details: in vivo, po, 336 h
Rattus norvegicus [23] = assay: Tmax in intragastrically dosed Sprague-Dawley rat assessed as pyrroloquinazolinediamine level at 95 umol/kg administered as single dose; type: ADME, organism-based; details: in vivo, po
Rattus norvegicus [24] = assay: Total AUC in intragastrically dosed Sprague-Dawley rat assessed as pyrroloquinazolinediamine level at 47.6 umol/kg administered daily for 3 days measured on day 3; type: ADME, organism-based; parameters: dose 47.6 umol/kg, route intragastric, time AUCmax; details: in vivo, po, 72 h
Rattus norvegicus [25] = assay: Elimination half life in intragastrically dosed Sprague-Dawley rat assessed as pyrroloquinazolinediamine level at 47.6 umol/kg administered daily for 3 days measured on day 3; type: ADME, organism-based; details: in vivo, po, 72 h
Rattus norvegicus [26] = assay: Elimination half life in intragastrically dosed Sprague-Dawley rat assessed as monoacetamide pyrroloquinazolinediamine level at 95 umol/kg administered as single dose; type: ADME, organism-based; details: in vivo, po
Rattus norvegicus [27] = assay: Anorexic toxicity in intragastrically dosed Sprague-Dawley rat assessed as ratio of body weight change to day of weight change at 780 umol/kg administered as single dose after 14 days; type: organism-based; details: in vivo, po, 336 h
Rattus norvegicus [28] = assay: Anorexic toxicity in intragastrically dosed Sprague-Dawley rat assessed as ratio of body weight change to day of weight change at 190 umol/kg administered daily for 3 days measured after 14 days; type: organism-based; details: in vivo, po, 336 h
Rattus norvegicus [29] = assay: Anorexic toxicity in intragastrically dosed Sprague-Dawley rat assessed as ratio of body weight change to day of weight change at 11.9 umol/kg administered daily for 3 days measured after 14 days; type: organism-based; details: in vivo, po, 336 h
Plasma = assay: Metabolic stability in Sprague-Dawley rat plasma assessed as formation of pyrroloquinazolinediamine after 30 mins; type: ADME, cell-free; details: 0.5 h
Rattus norvegicus [30] = assay: Anorexic toxicity in intragastrically dosed Sprague-Dawley rat assessed as ratio of body weight change to day of weight change at 2340 umol/kg administered as single dose after 14 days; type: organism-based; details: in vivo, po, 336 h
Rattus norvegicus [31] = assay: Anorexic toxicity in intragastrically dosed Sprague-Dawley rat assessed as ratio of body weight change to day of weight change after 14 days; type: organism-based; details: in vivo, po, 336 h
Rattus norvegicus [32] = assay: Anorexic toxicity in intragastrically dosed Sprague-Dawley rat assessed as ratio of body weight change to day of weight change at 1170 umol/kg administered as single dose after 14 days; type: organism-based; details: in vivo, po, 336 h
Rattus norvegicus [33] = assay: Bioavailability in intragastrically dosed Sprague-Dawley rat assessed as pyrroloquinazolinediamine level at 47.6 umol/kg administered daily for 3 days measured on day 3; type: ADME, organism-based; details: in vivo, po, 72 h
Rattus norvegicus [34] = assay: AUC (0 to infinity) in intragastrically dosed Sprague-Dawley rat assessed as pyrroloquinazolinediamine level at 95 umol/kg administered as single dose; type: ADME, organism-based, Plasma; parameters: dose 95 umol/kg, time infinity, route intragastric; details: in vivo, po
Rattus norvegicus [35] = assay: Toxicity in intragastrically dosed Sprague-Dawley rat assessed as mortality at 2340 umol/kg administered as single dose after 14 days; type: organism-based; details: in vivo, po, 336 h
[36] = Toxicity in intragastrically dosed Sprague-Dawley rat; type: organism-based; details: in vivo, po

SMILES | F (Rattus norvegicus [1]) [%] | Cmax (Rattus norvegicus [2]) [ng/mL] | Tmax (Rattus norvegicus [4]) [h] | t1/2 (Rattus norvegicus [5]) [h] | t1/2 (Rattus norvegicus [6]) [h] | F (Rattus norvegicus [7]) [%] | AUC (Rattus norvegicus [8]) [ng·h/mL] | Ratio (Rattus norvegicus [9]) | Tmax (Rattus norvegicus [10]) [h] | Ratio (Rattus norvegicus [11]) | Cmax (Rattus norvegicus [12]) [ng/mL] | Cmax (Rattus norvegicus [13]) [ng/mL] | AUC (Rattus norvegicus [15]) [ng·h/mL] | Ratio (Rattus norvegicus [16]) | Ratio (Rattus norvegicus [18]) | MTD [21] [µmol/kg] | Tmax (Rattus norvegicus [23]) [h] | AUC (Rattus norvegicus [24]) [ng·h/mL] | t1/2 (Rattus norvegicus [25]) [h] | Ratio (Rattus norvegicus [27]) | further results
CC(=O)N(C(C)=O)c1nc(N(C(C)=O)C(C)=O)c2c(ccc3c2ccn3Cc2ccccc2C(F)(F)F)n1 | 16.49 | 31.23 | 7 | 12.86 | 13.2 | 11.45 | 1250.1 | 1.18 | 5.67 | 2.61 | 60.5 | 30.84 | 705.9 | 2.06 | 2.55 | 2340 | 5.33 | 1903.5 | 17.66 | 2.47 | Activity (Rattus norvegicus [3]): 84%; t1/2 (Rattus norvegicus [14]): 12.64 h; AUC (Rattus norvegicus [17]): 24.9 ng·h/mL; Activity (Rattus norvegicus [19]): Non-toxic; AUC (Rattus norvegicus [20]): 176.5 ng·h/mL; Ratio (Rattus norvegicus [22]): 2.08; t1/2 (Rattus norvegicus [26]): 13.16 h; Ratio (Rattus norvegicus [28]): -0.89; Ratio (Rattus norvegicus [29]): 2.46; Activity (Plasma): 49%; Ratio (Rattus norvegicus [30]): 1.03; ID50 (Rattus norvegicus [31]): 140.43 µmol/kg; Ratio (Rattus norvegicus [32]): 2.76; F (Rattus norvegicus [33]): 26.96%; AUC (Rattus norvegicus [34]): 1047.3 ng·h/mL
CCOC(=O)Nc1nc(NC(=O)OCC)c2c(ccc3c2ccn3Cc2ccccc2C(F)(F)F)n1 | 20.45 | 59.46 | 3 | 13.29 | 13.59 | 14.86 | 1529.6 | -0.65 | 3.33 | 1.88 | 108.7 | 63.36 | 875.5 | 0.71 | 2.49 | 1170 | 3.83 | 2856.1 | 16.93 | 2.21 | Activity (Rattus norvegicus [35]): Toxic; Ratio (Rattus norvegicus [29]): 2.42; ID50 (Rattus norvegicus [31]): 60.65 µmol/kg; Ratio (Rattus norvegicus [32]): 0.84; LD50 [36]: 1570 µmol/kg; F (Rattus norvegicus [33]): 31.06%; AUC (Rattus norvegicus [34]): 1381.4 ng·h/mL
